Reference: patent US20100272648A1, “Methods of Identifying Improved NMDA Receptor Antagonists” (priority 2008, published 2010)
Like-named read-outs stand apart in the source and are kept apart here.

Experiments:
[1] = molecular target: rat NMDA-NR2B containing receptors (Rattus norvegicus, UniProt P35439+Q00960); experiment: pH potency boost, Xenopus oocyte assay, rat receptor cDNA; assay type: cell-based; conditions: pH 6.9 vs 7.6, rat receptors
Source text: (§1) In vitro transcribed cRNA was purified using standard methods.
(§2) Preparation of pH-dependent NMDA receptor antagonists for testing.
(§3) Voltage-clamp recordings from Xenopus oocytes.
(§4) Determination of a pH dependent potency boost in antagonism, defined as the […].

[2] = molecular target: human NMDA-NR2B containing receptors (Homo sapiens, UniProt Q05586+Q13224); experiment: pH potency boost, Xenopus oocyte assay, human receptor cDNA; assay type: cell-based; conditions: for HUMAN Boost: pH potency boost, pH 6.9 vs 7.6, human receptors; for Absolute Boost Difference: rat versus human pH potency boost
human NMDA-NR2B containing receptors, sequence (Q13224 27-1484, other chains not shown): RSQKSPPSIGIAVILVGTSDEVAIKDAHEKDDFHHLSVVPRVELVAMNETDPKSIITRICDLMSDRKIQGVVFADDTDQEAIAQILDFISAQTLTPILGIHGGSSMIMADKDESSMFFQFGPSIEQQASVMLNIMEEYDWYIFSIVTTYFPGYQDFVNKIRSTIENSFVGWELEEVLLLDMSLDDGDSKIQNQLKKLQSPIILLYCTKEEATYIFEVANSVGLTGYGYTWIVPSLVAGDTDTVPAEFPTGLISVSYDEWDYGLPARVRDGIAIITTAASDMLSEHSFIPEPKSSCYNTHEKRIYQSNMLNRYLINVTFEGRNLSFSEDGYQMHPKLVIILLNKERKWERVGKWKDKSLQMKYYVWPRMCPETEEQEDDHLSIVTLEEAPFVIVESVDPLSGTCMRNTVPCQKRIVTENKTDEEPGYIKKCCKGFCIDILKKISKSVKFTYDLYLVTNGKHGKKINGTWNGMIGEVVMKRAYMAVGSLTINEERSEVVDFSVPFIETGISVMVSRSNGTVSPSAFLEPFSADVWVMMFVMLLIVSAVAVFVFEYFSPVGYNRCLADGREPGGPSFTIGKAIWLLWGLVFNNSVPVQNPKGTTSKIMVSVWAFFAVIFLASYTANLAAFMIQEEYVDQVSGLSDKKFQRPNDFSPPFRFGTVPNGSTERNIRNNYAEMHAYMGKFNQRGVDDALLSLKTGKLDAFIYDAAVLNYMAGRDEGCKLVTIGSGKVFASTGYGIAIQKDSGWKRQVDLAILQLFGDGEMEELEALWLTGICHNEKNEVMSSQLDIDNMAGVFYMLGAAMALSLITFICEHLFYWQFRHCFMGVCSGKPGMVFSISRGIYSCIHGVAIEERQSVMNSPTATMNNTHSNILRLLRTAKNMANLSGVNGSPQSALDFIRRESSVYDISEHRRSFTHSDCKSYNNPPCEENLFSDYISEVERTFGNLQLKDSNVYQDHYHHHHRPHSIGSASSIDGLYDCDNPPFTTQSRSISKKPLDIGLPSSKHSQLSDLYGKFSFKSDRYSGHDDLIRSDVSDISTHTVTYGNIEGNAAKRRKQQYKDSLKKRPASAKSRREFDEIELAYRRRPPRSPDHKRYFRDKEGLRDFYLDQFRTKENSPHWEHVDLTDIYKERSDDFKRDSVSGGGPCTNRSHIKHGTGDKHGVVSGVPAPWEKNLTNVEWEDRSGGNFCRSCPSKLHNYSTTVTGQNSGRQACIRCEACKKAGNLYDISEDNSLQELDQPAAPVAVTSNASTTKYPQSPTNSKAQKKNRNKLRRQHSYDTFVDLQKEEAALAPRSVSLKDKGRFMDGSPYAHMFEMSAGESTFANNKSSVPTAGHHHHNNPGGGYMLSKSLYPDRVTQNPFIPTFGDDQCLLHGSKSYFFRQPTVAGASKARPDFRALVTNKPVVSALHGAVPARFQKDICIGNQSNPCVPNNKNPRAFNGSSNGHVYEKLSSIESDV
Source text: as §1, §2, §3, §4

infarct volume [3] = conditions: cats and rats, highest dose tested; cited from earlier work
infarct volume [4] = conditions: rats, after middle cerebral artery occlusion; cited from earlier work
infarct volume [5] = conditions: cats, highest dose tested; cited from earlier work
NR1/NR2A receptors = NR1/NR2A receptors (Rattus norvegicus, UniProt P35439+Q00959); experiment: In vitro potency boost pH 6.9 vs 7.6 (NR1/NR2A, oocytes) versus infarct volume (FIG. 4); conditions: potency boost pH 6.9 vs 7.6 versus infarct volume
NR1/NR2A receptors, sequence (Q00959 23-1464, other chains not shown): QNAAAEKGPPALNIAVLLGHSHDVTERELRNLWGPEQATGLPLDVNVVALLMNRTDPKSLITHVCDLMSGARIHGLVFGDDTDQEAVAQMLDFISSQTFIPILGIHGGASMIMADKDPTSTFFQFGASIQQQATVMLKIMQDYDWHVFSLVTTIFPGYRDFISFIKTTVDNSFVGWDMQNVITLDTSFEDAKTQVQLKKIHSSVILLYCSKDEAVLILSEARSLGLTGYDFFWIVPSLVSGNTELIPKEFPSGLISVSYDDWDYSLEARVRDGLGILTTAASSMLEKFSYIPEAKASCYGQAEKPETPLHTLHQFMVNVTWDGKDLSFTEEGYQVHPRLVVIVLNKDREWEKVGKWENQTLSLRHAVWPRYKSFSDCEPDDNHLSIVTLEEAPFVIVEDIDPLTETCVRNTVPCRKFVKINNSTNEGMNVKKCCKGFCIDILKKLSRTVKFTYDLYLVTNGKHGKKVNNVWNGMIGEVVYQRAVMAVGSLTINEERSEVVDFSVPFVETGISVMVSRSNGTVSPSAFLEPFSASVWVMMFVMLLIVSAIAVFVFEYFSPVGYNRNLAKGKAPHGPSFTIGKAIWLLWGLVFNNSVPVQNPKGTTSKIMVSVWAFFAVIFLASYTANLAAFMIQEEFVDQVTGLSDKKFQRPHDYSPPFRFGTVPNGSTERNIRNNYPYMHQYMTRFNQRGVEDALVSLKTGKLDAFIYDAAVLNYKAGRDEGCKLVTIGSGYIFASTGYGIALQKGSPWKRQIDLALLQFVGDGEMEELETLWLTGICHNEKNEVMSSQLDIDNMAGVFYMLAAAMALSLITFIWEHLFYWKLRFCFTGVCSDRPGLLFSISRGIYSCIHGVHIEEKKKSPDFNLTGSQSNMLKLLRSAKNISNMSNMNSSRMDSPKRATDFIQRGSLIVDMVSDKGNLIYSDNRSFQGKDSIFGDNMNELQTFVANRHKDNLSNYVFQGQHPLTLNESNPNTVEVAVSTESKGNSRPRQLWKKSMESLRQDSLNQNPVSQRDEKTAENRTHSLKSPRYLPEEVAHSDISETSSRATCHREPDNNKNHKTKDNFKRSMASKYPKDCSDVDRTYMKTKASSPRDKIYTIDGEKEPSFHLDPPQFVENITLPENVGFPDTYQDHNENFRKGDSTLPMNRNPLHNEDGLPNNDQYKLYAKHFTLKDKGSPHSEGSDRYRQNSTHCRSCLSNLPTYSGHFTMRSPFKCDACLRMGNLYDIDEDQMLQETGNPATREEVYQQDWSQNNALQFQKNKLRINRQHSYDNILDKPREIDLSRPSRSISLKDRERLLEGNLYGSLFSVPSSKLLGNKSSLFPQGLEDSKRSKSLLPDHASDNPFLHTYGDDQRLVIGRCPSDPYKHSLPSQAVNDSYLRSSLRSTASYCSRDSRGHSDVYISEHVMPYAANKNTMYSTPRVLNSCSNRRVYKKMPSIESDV
Protocol: Expression of NMDA receptors in Xenopus oocytes. cRNA was synthesized from linearized template cDNA for NMDA receptor subunits (NR1-1a, NR2B, NR2A) according to manufacturer specifications (Ambion:). cDNAs used corresponded to GenBank numbers U08261 and U11418 (NR1-1a), AF001423 and CD13211 (NR2A), U11419 (NR2B). Briefly, cDNA was linearized with an appropriate restriction enzyme downstream of the coding region, purified, and incubated with RNA polymerase and appropriate concentrations of ribonucleotides. In vitro transcribed cRNA was purified using standard methods. Quality of synthesized cRNA was assessed by gel electrophoresis, and quantity was estimated by spectroscopy and gel electrophoresis. Stage V and VI oocytes were surgically removed from the ovaries of large, well-fed and healthy Xenopus laevis anesthetized with 3-amino-benzoic acid ethyl ester (1 gm/l). Clusters of oocytes were incubated with 292 Uml Worthington (Freehold, N.J.) type IV collagenase or 1.3 mg/ml collagenase (Life Technologies, Gaithersburg, Md.; 17018-029) for 2 hr in Ca2+-free solution comprised of (in mM) 115 NaCl, 2.5 KCl, and 10 HEPES, pH 7.5, with slow agitation to remove the follicular cell layer. […]

[6] = Locomotor activity of rats (light beam breaks); assay type: in vivo, Sprague-Dawley rats; conditions: IP, varying doses (3-300 mg/kg, compound-specific), monitored 2 hours after injection
Protocol: Locomotor activity was monitored after injection for 2 hours.

dyskinesias = conditions: add-on therapy with L-DOPA, patients; cited from earlier work

rat NMDA-NR2B containing receptors, sequence (Q00960 27-1482, other chains not shown): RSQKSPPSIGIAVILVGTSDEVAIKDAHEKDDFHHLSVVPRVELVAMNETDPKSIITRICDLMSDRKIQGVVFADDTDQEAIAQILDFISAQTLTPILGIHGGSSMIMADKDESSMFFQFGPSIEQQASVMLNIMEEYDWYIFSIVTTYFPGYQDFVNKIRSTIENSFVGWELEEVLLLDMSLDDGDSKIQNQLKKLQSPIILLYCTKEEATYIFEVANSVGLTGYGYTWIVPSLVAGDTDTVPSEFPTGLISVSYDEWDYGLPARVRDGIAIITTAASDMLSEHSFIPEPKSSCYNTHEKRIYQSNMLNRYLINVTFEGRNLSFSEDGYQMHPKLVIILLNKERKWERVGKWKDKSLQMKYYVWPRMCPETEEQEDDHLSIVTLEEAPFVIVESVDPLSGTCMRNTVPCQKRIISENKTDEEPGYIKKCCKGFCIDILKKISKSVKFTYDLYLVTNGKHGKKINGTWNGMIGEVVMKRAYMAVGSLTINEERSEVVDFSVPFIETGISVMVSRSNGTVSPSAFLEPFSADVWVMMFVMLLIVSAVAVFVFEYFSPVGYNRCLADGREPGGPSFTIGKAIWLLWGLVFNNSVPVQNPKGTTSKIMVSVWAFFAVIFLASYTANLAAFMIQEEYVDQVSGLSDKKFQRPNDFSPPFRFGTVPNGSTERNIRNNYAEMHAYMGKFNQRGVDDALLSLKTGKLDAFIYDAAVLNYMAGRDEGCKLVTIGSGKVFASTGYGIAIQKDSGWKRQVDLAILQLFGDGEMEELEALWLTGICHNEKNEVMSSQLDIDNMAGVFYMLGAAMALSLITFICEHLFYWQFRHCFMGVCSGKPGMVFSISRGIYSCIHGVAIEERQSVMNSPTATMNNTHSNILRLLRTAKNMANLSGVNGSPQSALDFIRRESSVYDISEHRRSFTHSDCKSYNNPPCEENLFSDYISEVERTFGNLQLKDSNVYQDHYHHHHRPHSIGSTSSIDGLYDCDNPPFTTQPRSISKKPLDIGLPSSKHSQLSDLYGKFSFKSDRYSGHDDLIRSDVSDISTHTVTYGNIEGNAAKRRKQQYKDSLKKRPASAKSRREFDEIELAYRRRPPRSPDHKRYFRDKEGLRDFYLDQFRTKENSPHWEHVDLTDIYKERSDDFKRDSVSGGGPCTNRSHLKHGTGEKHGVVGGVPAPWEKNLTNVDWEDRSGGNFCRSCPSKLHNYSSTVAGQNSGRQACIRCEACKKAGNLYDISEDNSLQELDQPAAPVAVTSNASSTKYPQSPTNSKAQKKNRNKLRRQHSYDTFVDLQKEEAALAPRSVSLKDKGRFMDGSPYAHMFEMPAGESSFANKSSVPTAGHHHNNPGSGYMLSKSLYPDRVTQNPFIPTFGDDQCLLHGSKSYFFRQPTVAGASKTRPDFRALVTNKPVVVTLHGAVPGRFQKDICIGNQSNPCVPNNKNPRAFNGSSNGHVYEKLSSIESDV

Compound | RAT Boost [1] | HUMAN Boost [2] | Absolute Boost Difference [2] | further results
CCCCN(CCc1ccc(Cl)c(Cl)c1)CC(O)COc1ccc(NS(C)(=O)=O)cc1 (stereo not drawn) [Compound 93-88] | 6.3 | 22.1 | 15.8 | –
C/C=C/CN(CCc1ccc(Cl)c(Cl)c1)CC(O)COc1ccc(NS(C)(=O)=O)cc1 (stereo not drawn) [Compound 93-128] | 4.1 | 18.0 | 13.9 | –
OC(CN1CCC(Cc2ccc(F)cc2)CC1)c1ccc(Cl)cc1 (stereo not drawn) [SL 82.0715] | – | – | – | decrease in infarct volume (infarct volume [3]): 36-48%
CC(C(O)c1ccc(O)cc1)N1CCC(Cc2ccccc2)CC1 (stereo not drawn) [Ifenprodil] | – | – | – | decrease in infarct volume (infarct volume [4]): 22%; decrease in infarct volume (infarct volume [5]): 42%
CS(=O)(=O)Nc1ccc(OCC2CN(CCc3cc(Cl)c(Cl)s3)C(c3c(F)c(F)c(F)c(F)c3F)O2)cc1 (stereo not drawn) [Compound 93-176] | 34.5 | 29.9 | 4.6 | –
CS(=O)(=O)Nc1ccc(OCC(O)CN(CCc2ccc(Cl)c(Cl)c2)Cc2ccccc2)cc1 (stereo not drawn) [Compound 93-30] | 7.4 | 21.0 | 13.6 | –
CNC1(c2ccccc2Cl)CCCCC1=O (stereo not drawn) [ketamine] | – | – | – | mean within shaded area (criteria for superior drug performance), NR1/NR2A (NR1/NR2A receptors): fall within the shaded area
(+)MK801 | – | – | – | effects on locomotor activity [6]: stereotypical biphasic effects
CS(=O)(=O)Nc1ccc(OCC(O)CN2CCN(c3ccc(F)c(F)c3)CC2)cc1 (stereo not drawn) [Compound 93-108] | 3.4 | 17.7 | 14.3 | –
NC12CC3CC(CC(C3)C1)C2 [Amantadine] | – | – | – | reduction of severity of dyskinesias (dyskinesias): 60%
